What is called AUC(0-inf) is the area under the concentration-time curve extrapolated to infinity. The term clearance denotes a measure of how efficiently the substance is removed, as volume per time. A low value points to inefficient removal. The Vd is the apparent volume that relates the amount in the body to the concentration in plasma or blood. High values mean wide distribution into tissue, low ones little distribution into tissue. As a reminder, the Tmax is the time at which the peak concentration occurs. The Cmax is the highest concentration seen after dosing. The half-life is the time in which the quantity being followed falls by half.

The text below walks through data of article PMC12057336 (Antimicrobial Agents and Chemotherapy, 2025).

The nature of data set [1]: Pharmacokinetics (plasma, urine) of linezolid and metabolites after i.g. or i.v. linezolid in control, CCl4-induced and 5/6 Nx rats. The following applies: for AUC(0-inf): AUC0-∞. An excerpt:
The control group rats were intraperitoneally injected with equal volumes of soybean oil. […] The upper and lower poles of the left kidney were removed under urethane anesthesia (1 g/kg; administered by i.p. injection). One week later, the right kidney was completely excised. Rats in the control group underwent a sham operation ([35]). Serum creatinine (CREA), blood urea nitrogen (BUN), aspartate aminotransferase (AST), alanine aminotransferase (ALT), alkaline phosphatase (ALP), lactate dehydrogenase (LDH), and total bilirubin (TBIL) levels were measured using commercial kits (Shanghai Enzyme-linked Biotechnology Co., Ltd., Shanghai, China) according to the protocols described by the manufacturer before pharmacokinetic experiments.
The rats were first divided into two groups: i.v. or i.g. administration groups. These two groups were further divided into the following four subgroups (n = 5): soybean oil-treated control rats, CCl4-induced rats, sham-operated control rats, and 5/6 Nx rats. […] Blood samples (200 µL) were collected from the retro-orbital venous plexus into heparinized tubes at 0 (pre-dose), 0.25, 0.5, 0.75, 1, 2, 3, 4, 6, 8, 12, and 24 h after i.g. administration, and at 0 (pre-dose), 0.083, 0.25, 0.5, 0.75, 1, 2, 3, 4, 6, 8, 12, and 24 h after i.v. administration. Plasma samples were separated by centrifugation at 6,000 × g for 5 min at 4°C and stored at −80°C until further analysis using HPLC.
Chromatographic separation was performed using the SinoPak BEH T-C18 column (4.6 mm × 150 mm, 5 µm, Hi-tech Zone, China) at 35°C. A photodiode array detector was set at a wavelength of 254 nm. The mobile phase consisted of 0.1% (vol/vol) formic acid in water (A) and acetonitrile (B). The gradient conditions were as follows: 0–4.0 min, 14%–86% B; 4.0–5.0 min, […]; 5.0–5.7 min, return to 14% B; 5.7–8.0 min, equilibrium. The flow rate was 1.0 mL/min.
Plasma and tissue homogenate samples (100 µL) were mixed with 10 µL of IS (50.0 mg/L) and 200 µL of acetonitrile, followed by vortex-mixing for 3 min. The mixture was centrifuged at 15,000 × g for 15 min at 4°C. Then, 5 µL of the supernatant was analyzed. The urine samples were diluted and directly injected for measurement.
The area under the plasma concentration-time curve from 0 to infinity (AUC0-∞), time to maximum concentration (tmax), Cmax, t1/2, CL, and Vd were calculated by non-compartmental model analysis using the Phoenix 8.1.0 WinNonlin software (Pharsight Corp, Princeton, NJ, USA). The renal clearance (CLr), in vitro hepatic clearance (CLint, in vitro), and bioavailability (F) were calculated using the following equations:
F (%) = Div×AUC0−∞, ig/Dig×AUC0−∞, iv
Atotal is the total cumulative amount excreted in urine over 24 h. D is the administered dose. The scale factor is 4,680 (10^6 cells/kg). All data are expressed as mean ± standard deviation (SD). Statistical analysis was performed using Student’s two-tailed unpaired t-test or nonparametric Mann-Whitney U test with SPSS Statistics 19.0 (SPSS Inc., Chicago, IL, USA). Statistical significance was set at P < 0.05.

Another data set deals with OCT2. To be noted: cited from earlier work.
For a further data set, the system named is MATE1. To be noted: cited from earlier work.
In another data set the test system is OATP1B3. To be noted: cited from earlier work.
Where [2] appears, read: Sprague-Dawley, rat, in vivo, iv.
[3] abbreviates: Sprague-Dawley, rat, in vivo, po, 63 mg/kg.

For the compound `CC(=O)NC[C@H]1CN(c2ccc(N3CCOCC3)c(F)c2)C(=O)O1` [Linezolid], the “change of cumulative urinary excretion rate” value is “significantly decreased” in data set [1] (5/6 Nx rats vs control, P < 0.05) and “no significant changes” in data set [1] (CCl4-induced rats). Further, the “decrease of CLr in comparison to sham-operated control rats” value in data set [1] (Sprague-Dawley, rat, in vivo) was determined as 50.0%; in data set [1] (setting [2]), 66.7%. In addition, the “decrease of CL in comparison to soybean oil-treated control rats” value in data set [1] (setting [2]) was found to be 27.0%; in data set [1] (Sprague-Dawley, rat, in vivo, po), 13.8%. In addition, the AUC(0-inf) in data set [1] (Sprague-Dawley, rat, in vivo, iv, 25 mg/kg) came out at 69.3 ± 8.67 µg·h/mL; in data set [1] (setting [3]) it was 220 ± 27.6 µg·h/mL. In data set [1] (Sprague-Dawley, rat, in vivo, iv, 25 mg/kg, CL), the clearance was 6.17 mL/min/kg. This compound also showed a Vd in data set [1] (Sprague-Dawley, rat, in vivo, iv, 25 mg/kg, Vd) of 0.63 ± 0.05 L/kg. Also, the Tmax in data set [1] (setting [3]) was determined as 0.9 ± 0.14 h. Also, the tmax in data set [1] (setting [3]) is given as 1.0 h. Besides, the CL renal in data set [1] (Sprague-Dawley, rat, in vivo, po, 63 mg/kg, CLr) was 0.333 mL/min/kg. In addition, the peak level in data set [1] (Sprague-Dawley, rat, in vivo, po, 63 mg/kg, Cmax) (Cmax) was 35300 ± 1100 ng/mL. The compound further showed a half-life in data set [1] (Sprague-Dawley, rat, in vivo, po, 63 mg/kg, t1/2) of 1.84 ± 0.27 h. In addition, the “substrate for OCT2” value in the data set on OCT2 is recorded as “not a substrate”. For the same compound, the “substrate for MATE1” value in the data set with MATE1 is recorded as “not a substrate”. Besides, in the data set on OATP1B3, the “inhibitor of OATP1B3” value is given as “inhibitor”.
